Measured values reported in patent US12595251B2, “Amidines and amidine analogs for the treatment of bacterial infections and potentiation antibiotics” (GEORGIA STATE UNIVERSITY RESEARCH FOUNDATION, INC., priority 2018, dated 2026).
Where a name gives a salt, the structure may show the parent alone.

Experiments:
[1] = test system: wild-type E. coli; experiment: Sensitization of wild-type E. coli toward antibiotics (MIC of antibiotic with/without sensitizer); assay type: cell-based, Escherichia coli
Procedure: Bacteria were cultured with the antibiotic at various concentrations in the presence or absence of bacterial sensitizer for 24 hours at 37° C. Bacterial growth density was determined by measuring OD600 (absorbance measured at a wavelength of 600 nm). […]
The formula for calculating FIC is shown below: […]

[2] = test system: wild type B. subtilis; experiment: Sensitization of B. subtilis toward antibiotics (MIC, OD600, 24 h); assay type: cell-based, Bacillus subtilis
[3] = test system: MRSA; experiment: Sensitization of MRSA toward antibiotics (OD600, 24 h); assay type: cell-based, Staphylococcus aureus
[4] = test system: E. coli and MRSA; experiment: Relative ratio of E. coli and MRSA under trovafloxacin with/without Compound A-8; assay type: cell-based, Escherichia coli; Staphylococcus aureus
From the text: FIG. 23A is a comparison of the relative ratio of E. coli and MRSA treated with the antibiotic trovafloxacin in the absence (pie chart on the left) and in the presence (pie chart on the right) of Compound A-8 as described in Example 14. In the absence of Compound A-8, trovafloxacin preferred to inhibit E. coli and the bacterial population was 78% MRSA. However, Compound A-8 sensitizes trovafloxacin to MRSA.
(§1) As a proof of concept, the relative ratio of E. coli and MRSA (FIG. 23A) or B. subtilis and MRSA (FIG. 23 B) was measured with and without Compound A-8. […] However, when trovafloxacin (8 ng/ml) is supplied with 1.5 μg/ml of Compound A-8, MRSA inhibition was achieved and E. coli was the dominant species (89% of the bacteria population).

[5] = test system: B. subtilis and MRSA; experiment: Relative ratio of B. subtilis and MRSA under trovafloxacin with/without Compound A-8; assay type: cell-based, Bacillus subtilis; Staphylococcus aureus
Procedure: FIG. 23B is a comparison of the relative ratio of B. sub and MRSA treated with the antibiotic trovafloxacin in the absence (pie chart on the left) and in the presence (pie chart on the right) of Compound A-8 as described in Example 14. […] However, Compound A-8 sensitizes trovafloxacin to MRSA.
as §1

[6] = test system: B. subtilis; experiment: B. subtilis viability with antibiotic in absence or presence of compound (OD600, 20 h); assay type: cell-based, Bacillus subtilis; conditions: M-1 12.5 or 6 μM; A-2 6 or 12.5 μM; A-8; 20 h
Procedure: Bacterial viability was then determined by measuring density using OD600. […] B. subtilis was also cultured with either novobiocin or tetracycline at varying concentrations either in the absence or presence of compound M-1 (12.5 μM) for 20 hours. Bacterial viability was subsequently determined by measuring density using OD600.
(§2) Bacterial viability was then determined by measuring density using OD600.

[7] = test system: E. coli; experiment: E. coli viability with antibiotic in absence or presence of compound (OD600, 20 h); assay type: cell-based, Escherichia coli; conditions: M-1 25 μM or 12 μM; A-1 12 μM; A-8; 20 h
Procedure: as §2

[8] = test system: Klebsiella pneumoniae; experiment: Sensitization of Klebsiella pneumoniae to clarithromycin; assay type: cell-based; conditions: FIG. 16
From the text: The x-axis is clarithromycin measured in μg/ml and the y-axis is growth measured in percent.

[9] = trovafloxacin in presence of Compound A-8

## Cc1cc(CCc2ccc(C(=N)N)cc2)cc(CCc2ccc(C(=N)N)cc2)c1 [Compound A-8, 4,4′-((5-Methyl-1,3-phenylene)bis(ethane-2,1-diyl))dibenzimidamide Dihydrochloride]
[1]
  Concentration required to sensitize wild type E. coli towards rifampicin 32-fold: 7 µg/mL
[1]; compound at 5 μg/ml, strain and antibiotic not stated in Table 8
  Sensitization fold: 16
[2]
  Concentration required to sensitize B. subtilis towards rifampicin 32-fold: 3 µg/mL
[3]
  Concentration required to sensitize MRSA towards rifampicin 32-fold: 1.5 µg/mL
[3]; FIG. 22B, 24 h, 37 °C
  Sensitization of MRSA towards rifampicin (qualitative): sensitize MRSA towards rifampicin
[4]; trovafloxacin (8 ng/ml) with 1.5 μg/ml of Compound A-8
  E. coli share of the bacteria population (E. coli + MRSA): 89%
[4]; [9]
  MRSA share of the bacteria population (E. coli + MRSA): 11%
[5]; 8 ng/ml trovafloxacin and 1.5 μg/ml of Compound A-8
  B. subtilis share of the bacteria population (B. subtilis + MRSA): 99.5%
[5]; [9]
  MRSA share of the bacteria population (B. subtilis + MRSA): 0.5%
[6]
  B. subtilis growth inhibition, compound in combination with erythromycin vs erythromycin alone: significant bacterial growth inhibition
[7]
  E. coli growth inhibition, compound in combination with erythromycin: growth inhibition was also observed
[8]
  Sensitization of Klebsiella pneumoniae to clarithromycin: sensitization of Klebsiella pneumoniae to clarithromycin
